According to US10344330B2, “Glatiramer acetate response biomarker mRNA potency assay” (Mylan Inc., priority 2013, dated 2019):
Values joined by “and” are separate entries in the source; they are usually repeats but may differ in a detail not shown here. Equal entries are not always repeated.

Tests used:
[1] = tested on: mouse CD25 (IL-2ra) mRNA in primary LN cells; assay: Mouse CD25 mRNA in LN cells of Copaxone P53974-immunized CSJLF1/JRj mice stimulated with GA lots (Example VIII); type: cell-based; details: stimulation conc. 2.5 μg/mL, relative to DCCM1 medium control
Experimental: [The procedure below names another target; the source lists this target under the same test.] (§1) A real-time polymerase chain reaction method was used to measure the expression of IL-2, IL-4, IL-5, and IL-13 mRNA in LN cells, from GA-immunized mice, following stimulation with one of twelve GA lots. One lot of GA (Copaxone P53974) was used for immunization. […] Twenty female CSJLF1/JRj mice (Janvier Labs), approximately 8-12 weeks of age, were immunized by injection of 0.1 mL injection volume into four footpads (about 10 μL into each of the front footpad, 40 μL into each of the hind footpad) on Day 0. […] Samples were prepared using TaqMan Universal PCR Master Mix II (Life Technologies) and run in 96-well plates using a Real-Time PCR system (7500, Life Technologies) using the following RT-PCR program: The levels of cytokine mRNA were calculated using a standard ΔΔCT method as described previously.

mIL-2 mRNA in LN cells = mIL-2 mRNA in LN cells of Copaxone P53974-immunized CSJLF1/JRj mice, three identical experiments, GAPDH and β-actin reference (Example VII); type: cell-based, mouse; details: 2.5 μg/mL, 6 hours
Experimental: (§2) A real-time polymerase chain reaction method was used to measure the expression of IL-2, IL-4, IL-5, and IL-13 mRNA in GA-stimulated LN cells from GA-immunized mice. Three identical experiments were carried out. In each experiment, mice were immunized with GA, and LN cells from each group of mice were stimulated with each of six concentrations of the same batch of GA used for immunization. GAPDH and β-actin were used as reference genes.
(§3) Each of the three groups consisted of four female CSJLF1/JRj (Janvier Labs) mice, approximately 8-12 weeks of age. On Day 0, mice were immunized by injection of 0.1 mL injection volume into four footpads (about 10 μL into each of the front footpad, 40 μL into each of the hind footpad). The immunization contained a total dose of 250 μg of one lot of GA (Copaxone batch P53974)+CFA (0.5 mg/mL). On Day 10 post-immunization, lymph cells were isolated from animals and stimulated with enriched DCCM-1 (mock-stimulated vehicle control), 2.5 μg/mL Concanavalin A (ConA, a positive control) or GA.
(§4) Ten days following immunization, LN cell samples isolated from the immunized mice each were stimulated with 0.3, 1, 2.5, 5, 10, or 20 μg/mL of Copaxone batch P53974 as shown in Table 43.
(§5) Total RNA was isolated from stimulated LN cells after 6 hours of incubation at about 37° C. in a humidified CO2 incubator, using the SV 96 Total RNA Isolation System according to the manufacturer's protocol (Promega, Cat. #Z3500). cDNA was synthesized from each RNA sample in triplicate using High Capacity cDNA Reverse Transcription Kit (Life Technologies, formerly Applied Biosystems) according to the manufacturer's protocol.
(§6) Samples were prepared using TaqMan Universal PCR Master Mix II (Life Technologies) and run in 96-well plates using a Real-Time PCR system (7500, Life Technologies) using the following program for Real-Time PCR:
(§7) The levels of cytokine mRNA were calculated using a standard ΔΔCT method as described previously.

mIL-5 mRNA in LN cells = mIL-5 mRNA in LN cells of Copaxone P53974-immunized CSJLF1/JRj mice, three identical experiments (Example VII); type: cell-based, mouse; details: 2.5 μg/mL, 6 hours
Experimental: as §2, §3, §4, §5, §6, §7

[2] = tested on: mouse IL-17 mRNA in primary LN cells; assay: Mouse IL-17 mRNA in LN cells of Copaxone P53974-immunized CSJLF1/JRj mice stimulated with GA lots (Example VIII); type: cell-based; details: stimulation conc. 2.5 μg/mL; for IL-17 mRNA/B-Actin Fold Change: normalized to B-Actin; for IL-17 mRNA/GAPDH Fold Change: normalized to GAPDH
Experimental: [The procedure below names another target; the source lists this target under the same test.] as §1

[3] = tested on: mouse IL-2 mRNA in primary LN cells; assay: Mouse IL-2 mRNA in LN cells of Copaxone P53974-immunized CSJLF1/JRj mice stimulated with twelve GA lots (Example VIII); type: cell-based
Experimental: as §1

[4] = tested on: mouse IL-13 mRNA in primary LN cells; assay: Mouse IL-13 mRNA in LN cells of Copaxone P53974-immunized CSJLF1/JRj mice stimulated with twelve GA lots (Example VIII); type: cell-based; details: stimulation conc. 2.5 μg/mL; normalized to B-Actin
Experimental: as §1

[5] = relative to DCCM1 medium control
[6] = Plate 1, positive control 2.5 μg/mL listed in the C1 section
[7] = Plate 1, positive control 2.5 μg/mL listed in the C2 section
[8] = Plate 1, positive control 2.5 μg/mL listed in the C3 section

Concanavalin A [ConA, reference compound]
CD25 mRNA/B-Actin Fold Change ([1]; normalized to B-Actin): 4.1 and 5.6 and 4.7 and 5.2 and 5.0 and 5.1
CD25 mRNA/GAPDH Fold Change ([1]; normalized to GAPDH): 3.6 and 4.4 and 4.5 and 5.6 and 4.8 and 4.6 and 4.7
IL-2 mRNA/Actβ Fold Change (mIL-2 mRNA in LN cells; Group 1): 157.7 fold
IL-2 mRNA/GAPDH Fold Change (mIL-2 mRNA in LN cells; Group 1): 102.9 fold
IL-2 mRNA/Actβ Fold Change (mIL-2 mRNA in LN cells; Group 2): 137.4 fold
IL-2 mRNA/GAPDH Fold Change (mIL-2 mRNA in LN cells; Group 2): 122.2 fold
IL-2 mRNA/Actβ Fold Change (mIL-2 mRNA in LN cells; Group 3): 91.7 fold
IL-2 mRNA/GAPDH Fold Change (mIL-2 mRNA in LN cells; Group 3): 55.8 fold
IL-5 mRNA/Actβ Fold Change (mIL-5 mRNA in LN cells; Group 1): 16.6 fold
IL-5 mRNA/GAPDH Fold Change (mIL-5 mRNA in LN cells; Group 1): 12.0 fold
IL-5 mRNA/Actβ Fold Change (mIL-5 mRNA in LN cells; Group 2): 25.4 fold
IL-5 mRNA/GAPDH Fold Change (mIL-5 mRNA in LN cells; Group 2): 21.4 fold
IL-5 mRNA/Actβ Fold Change (mIL-5 mRNA in LN cells; Group 3): 12.4 fold
IL-5 mRNA/GAPDH Fold Change (mIL-5 mRNA in LN cells; Group 3): 8.6 fold
IL-17 mRNA/B-Actin Fold Change [2]: 133.2 fold and 224.2 fold and 128.3 fold and 204.1 fold
IL-17 mRNA/B-Actin Fold Change [2, 5]: 67.2 and 83.0 and 70.9 and 64.8
IL-17 mRNA/GAPDH Fold Change [2]: 125.8 fold and 208.6 fold and 139.9 fold and 213.0 fold
IL-17 mRNA/GAPDH Fold Change [2, 5]: 102.6 and 104.0 and 78.8 and 83.6
IL-2 mRNA/B-Actin Fold Change [3, 6]: 118.1 fold
IL-2 mRNA/GAPDH Fold Change [3, 6]: 116.9 fold
IL-2 mRNA/B-Actin Fold Change [3, 7]: 111.2 fold
IL-2 mRNA/GAPDH Fold Change [3, 7]: 103.7 fold
IL-2 mRNA/B-Actin Fold Change [3, 8]: 105.2 fold
IL-2 mRNA/GAPDH Fold Change [3, 8]: 87.6 fold
IL-2 mRNA/B-Actin Fold Change ([3]; stimulation conc. 2.5 μg/mL, normalized to B-Actin): 109.3 fold and 120.1 fold and 75.2 fold and 81.3 fold and 103.6 fold and 101.9 fold and 92.2 fold and 98.9 fold
IL-2 mRNA/B-Actin Fold Change ([3]; stimulation conc. 2.5 μg/mL, normalized to B-Actin, ΔΔCT): 106.7 fold and 96.2 fold and 103.1 fold and 120.5 fold and 121.8 fold
IL-2 mRNA/GAPDH Fold Change ([3]; stimulation conc. 2.5 μg/mL, normalized to GAPDH): 103.2 fold and 111.7 fold and 82.0 fold and 84.8 fold and 158.0 fold and 127.7 fold and 102.6 fold and 127.5 fold
IL-2 mRNA/GAPDH Fold Change ([3]; stimulation conc. 2.5 μg/mL, normalized to GAPDH, ΔΔCT): 100.3 fold and 92.7 fold and 99.8 fold and 147.4 fold and 131.3 fold
IL-13 mRNA/B-Actin Fold Change [4]: 29.3 fold
